pEC50: −log10 of the molar value. Numbered stars: 1 amine (or outer) side, 2 acyl side, 3 side chain; on linkers, the order of the positions; unused ones are H or OH. Square brackets hold non-standard residues; d marks the D form. Side chains are listed from the residue outwards. Peptide text beside a SMILES is read from it. * marks the point of attachment. γGlu = O=C(O)[C@H](CCC(=O)[*:2])N[*:1]; Palmitoyl = CCCCCCCCCCCCCCCC(=O)*; Aib = CC(C)(N)C(=O)O
Columns and labels:
[1] = Dynamic light scattering, hydrodynamic radius as surrogate for DLS interaction parameter kD; assay type: physicochemical; details: for Delta Rh [nm] = Rh5 − Rh1: DLS buffer system A pH 4.5; for Rh1 [nm] c = 1 mg/ml / Rh5 [nm] c = 5 mg/ml: hydrodynamic radius, DLS buffer system A pH 4.5, method C, 25° C.
Excerpt: A monochromatic and coherent light beam (laser) is used to illuminate the liquid sample. Dynamic Light Scattering (DLS) measures light scattered from particles (1 nm≤radius≤1 μm) that undergo Brownian motion. This motion is induced by collisions between the particles and solvent molecules that themselves are moving due to their thermal energy. The diffusional motion of the particles results in temporal fluctuations of the scattered light [Pecora, R. Dynamic Light Scattering: Applications of Photon Correlation Spectroscopy, Plenum Press, 1985].
The scattered light intensity fluctuations are recorded and transformed into an autocorrelation function. By fitting the autocorrelation curve to an exponential function, the diffusion coefficient D of the particles in solution can be derived. The diffusion coefficient is then used to calculate the hydrodynamic radius Rh (or apparent Stokes radius) through the Stokes-Einstein equation assuming spherical particles. This calculation is defined in ISO 13321 and ISO 22412 [International Standard ISO13321 Methods for Determination of Particle Size Distribution Part 8: Photon Correlation Spectroscopy, International Organisation for Standardisation (ISO) 1996; International Standard ISO22412 Particle Size Analysis—Dynamic Light Scattering, International Organisation for Standardisation (ISO) 2008].
For every peptide solution, the hydrodynamic radius Rh and the diffusion constant D (related via the Stokes-Einstein equation) were determined as an average over triplicates. Both parameters were determined at different peptide concentrations (e.g., Rh1 and D1: 1 mg/ml and Rh5 and D5: 5 mg/ml) in the same buffer system. The difference of these parameters between low and high peptide concentration is a surrogate for the DLS interaction parameter kD. Rh5<Rh1 or D5>D1 correspond to kD>0 and therefore to repulsive inter-particle interactions that result in improved physical (or colloidal) stability.
DLS buffer system A) 25 mM acetate buffer pH 4.5, 3 mg/mL L-Methionine, 2.7 mg/mL m-cresol, 18 mg/mL Glycerol 85%
DLS Method C: DLS measurements were performed on a DynaPro Plate Reader II (Wyatt Technology, Santa Barbara, Calif., US) and using one of the following black, low volume, and non-treated plates: polystyrene 384 assay plate with clear bottom (Corning, N.Y., US), polystyrene 96 assay plate with clear bottom (Corning, N.Y., US), cyclo olefin polymer (COP) 384 assay plate with clear bottom (Aurora, Mont., US), or polystyrene 384 assay plate with clear bottom (Greiner Bio-One, Germany). The data were processed with the Dynamics software provided by Wyatt Technology. Parameters of the particle size distribution were determined with non-negatively constrained least squares (NNLS) methods using DynaLS algorithms. Measurements were taken at 25° C. with an 830 nm laser light source at an angle of 158°.
The hydrodynamic radius Rh of peptide samples was determined at different peptide concentrations (1 mg/ml and 5 mg/ml) in DLS buffer system A using DLS method C as described in Methods as surrogate for the DLS interaction parameter kD.

human glucagon receptor = target: T1, human glucagon receptor (Homo sapiens, UniProt P47871); test: cAMP response (HTRF) of HEK-293 cells stably expressing human glucagon receptor; assay type: cell-based; details: Table 8; read-out: EC50 hGlucagon R
T1 construct: expressed in transfected cells; host or cells: HEK-293
T1 sequence (P47871 26-477): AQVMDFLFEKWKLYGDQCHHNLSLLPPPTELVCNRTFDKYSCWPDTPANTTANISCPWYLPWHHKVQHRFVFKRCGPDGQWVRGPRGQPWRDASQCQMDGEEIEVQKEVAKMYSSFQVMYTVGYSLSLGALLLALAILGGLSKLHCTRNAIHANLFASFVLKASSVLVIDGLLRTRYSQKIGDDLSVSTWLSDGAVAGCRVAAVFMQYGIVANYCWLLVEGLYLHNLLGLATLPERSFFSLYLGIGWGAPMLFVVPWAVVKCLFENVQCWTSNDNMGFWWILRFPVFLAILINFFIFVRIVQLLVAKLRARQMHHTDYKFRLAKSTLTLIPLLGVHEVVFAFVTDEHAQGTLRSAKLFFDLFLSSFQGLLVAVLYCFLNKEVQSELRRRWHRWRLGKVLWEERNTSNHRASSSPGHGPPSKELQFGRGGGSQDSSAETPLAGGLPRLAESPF
Protocol: cAMP content of cells was determined using a kit from Cisbio Corp. (cat. no. 62AM4PEJ) based on HTRF (Homogenous Time Resolved Fluorescence). For preparation, cells were split into T175 culture flasks and grown overnight to near confluency in medium (DMEM/10% FBS). Medium was then removed and cells washed with PBS lacking calcium and magnesium, followed by proteinase treatment with accutase (Sigma-Aldrich cat. no. A6964). Detached cells were washed and resuspended in assay buffer (1×HBSS; 20 mM HEPES, 0.1% BSA, 2 mM IBMX) and cellular density determined. They were then diluted to 400000 cells/ml and 25 μl-aliquots dispensed into the wells of 96-well plates. For measurement, 25 μl of test compound in assay buffer was added to the wells, followed by incubation for 30 minutes at room temperature.
Potencies of peptidic compounds at the GLP-1, glucagon and GIP receptors were determined by exposing cells expressing human glucagon receptor (hGlucagon R), human GIP receptor (hGIP-R) or human GLP-1 receptor (hGLP-1 R) to the listed compounds at increasing concentrations and measuring the formed cAMP as described in Methods.

human GIP receptor = target: T2, human GIP receptor (Homo sapiens, UniProt P48546); test: cAMP response (HTRF) of HEK-293 cells stably expressing human GIP receptor; assay type: cell-based; details: Table 8; read-out: EC50 hGIP R
T2 construct: expressed in transfected cells; host or cells: HEK-293
T2 sequence (P48546 22-466): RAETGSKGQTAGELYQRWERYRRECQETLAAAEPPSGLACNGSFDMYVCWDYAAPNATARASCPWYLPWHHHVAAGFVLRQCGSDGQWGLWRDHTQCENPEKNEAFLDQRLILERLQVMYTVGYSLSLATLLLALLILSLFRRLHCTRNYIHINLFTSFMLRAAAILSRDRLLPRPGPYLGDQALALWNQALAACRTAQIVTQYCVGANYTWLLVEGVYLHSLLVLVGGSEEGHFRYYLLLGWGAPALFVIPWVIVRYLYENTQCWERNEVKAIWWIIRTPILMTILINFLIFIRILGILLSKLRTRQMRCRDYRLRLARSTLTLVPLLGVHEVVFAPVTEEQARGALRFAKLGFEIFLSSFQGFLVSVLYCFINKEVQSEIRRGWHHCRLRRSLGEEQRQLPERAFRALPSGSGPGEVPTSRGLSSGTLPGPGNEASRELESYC
Method in brief: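 HEK-293 cells stably expressing human GIP receptor were incubated with compound for 30 min at room temperature in HBSS/20 mM HEPES/0.1% BSA with 2 mM IBMX. cAMP was measured by HTRF (665/616 nm ratio) after 1 h with detection reagents in lysis buffer; EC50 is the concentration giving 50% of maximal response.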

| Delta Rh [nm] = Rh5 − Rh1 [1] [nm] | Rh1 [nm] c = 1 mg/ml [1] [nm] | Rh5 [nm] c = 5 mg/ml [1] [nm] | pEC50 (human glucagon receptor) | pEC50 (human GIP receptor) | Compound |
| --- | --- | --- | --- | --- | --- |
| −0.3 | 2.8 | 2.5 | 11.68 | – | CCCCCCCCCCCCCCCC(=O)N[C@@H](CCC(=O)N[C@@H](CCC(=O)NCCCC[C@H](NC(=O)[C@H](CC(C)C)NC(=O)[C@H](CCCCN)NC(=O)[C@H](CO)NC(=O)[C@H](CC(C)C)NC(=O)[C@H](CC(=O)O)NC(=O)[C@H](CO)NC(=O)[C@@H](NC(=O)[C@H](Cc1ccccc1)NC(=O)[C@@H](NC(=O)CNC(=O)[C@H](Cc1c[nH]cn1)NC(=O)C(C)(C)NC(=O)[C@@H](N)Cc1c[nH]cn1)[C@@H](C)O)[C@@H](C)O)C(=O)N[C@@H](CCC(=O)O)C(=O)N[C@@H](CCC(=O)O)C(=O)N[C@@H](CCC(N)=O)C(=O)N[C@@H](CCCNC(=N)N)C(=O)N[C@@H](CCC(N)=O)C(=O)NC(C)(C)C(=O)N[C@@H](CCC(=O)O)C(=O)N[C@@H](Cc1ccccc1)C(=O)N[C@H](C(=O)N[C@@H](CCC(=O)O)C(=O)N[C@@H](Cc1c[nH]c2ccccc12)C(=O)N[C@@H](CC(C)C)C(=O)N[C@@H](CCCCN)C(=O)N[C@@H](C)C(=O)N[C@H](C)C(=O)NCC(=O)N[C@@H](Cc1c[nH]cn1)C(=O)N1CCC[C@H]1C(=O)N[C@@H](CO)C(=O)NC(C)(C)C(=O)N[C@@H](CCCCN)C(=O)N1CCC[C@H]1C(=O)N1CCC[C@H]1C(=O)N1CCC[C@H]1C(=O)N[C@@H](CCCCN)C(N)=O)[C@@H](C)CC)C(=O)O)C(=O)O [SEQ ID NO: 13, H-Aib-H-G-T-F-T-S-D-L-S-K-L-K[gGlu-gGlu-Palm]-E-E-Q-R-Q-Aib-E-F-I-E-W-L-K-A-dAla-G-H-P-S-Aib-K-P-P-P-K-NH2] (H-H[Aib]HGTFTSDLSKLK([γGlu-γGlu-Palmitoyl])EEQRQ[Aib]EFIEWLKA[dA]GHPS[Aib]KPPPK-NH2) |
| −0.3 | 2.9 | 2.6 | 11.70 | 11.72 | CCCCCCCCCCCCCCCC(=O)N[C@@H](CCC(=O)N[C@@H](CCC(=O)NCCCC[C@H](NC(=O)[C@H](CC(C)C)NC(=O)[C@H](CCCCN)NC(=O)[C@H](CO)NC(=O)[C@H](CC(C)C)NC(=O)[C@H](CC(=O)O)NC(=O)[C@H](CO)NC(=O)[C@@H](NC(=O)[C@H](Cc1ccccc1)NC(=O)[C@@H](NC(=O)CNC(=O)[C@H](Cc1c[nH]cn1)NC(=O)C(C)(C)NC(=O)[C@@H](N)Cc1c[nH]cn1)[C@@H](C)O)[C@@H](C)O)C(=O)N[C@@H](CCC(=O)O)C(=O)N[C@@H](CCC(=O)O)C(=O)N[C@@H](CCC(N)=O)C(=O)N[C@@H](CCCNC(=N)N)C(=O)N[C@@H](CCC(N)=O)C(=O)NC(C)(C)C(=O)N[C@@H](CCC(=O)O)C(=O)N[C@@H](Cc1ccccc1)C(=O)N[C@H](C(=O)N[C@@H](CCC(=O)O)C(=O)N[C@@H](Cc1c[nH]c2ccccc12)C(=O)N[C@@H](CC(C)C)C(=O)N[C@@H](CCCCN)C(=O)N[C@@H](C)C(=O)NCC(=O)NCC(=O)N[C@@H](Cc1c[nH]cn1)C(=O)N1CCC[C@H]1C(=O)N[C@@H](CO)C(=O)NC(C)(C)C(=O)N[C@@H](CCCCN)C(=O)N1CCC[C@H]1C(=O)N1CCC[C@H]1C(=O)N1CCC[C@H]1C(=O)N[C@@H](CCCCN)C(N)=O)[C@@H](C)CC)C(=O)O)C(=O)O [SEQ ID NO: 12, H-Aib-H-G-T-F-T-S-D-L-S-K-L-K[gGlu-gGlu-Palm]-E-E-Q-R-Q-Aib-E-F-I-E-W-L-K-A-G-G-H-P-S-Aib-K-P-P-P-K-NH2] |
| −0.4 | 3.0 | 2.6 | 11.70 | – | CCCCCCCCCCCCCCCC(=O)N[C@@H](CCC(=O)N[C@@H](CCC(=O)NCCCC[C@H](NC(=O)[C@H](CC(C)C)NC(=O)[C@H](CCCCN)NC(=O)[C@H](CO)NC(=O)[C@H](CC(C)C)NC(=O)[C@H](CC(=O)O)NC(=O)[C@H](CO)NC(=O)[C@@H](NC(=O)[C@H](Cc1ccccc1)NC(=O)[C@@H](NC(=O)CNC(=O)[C@H](Cc1c[nH]cn1)NC(=O)C(C)(C)NC(=O)[C@@H](N)Cc1c[nH]cn1)[C@@H](C)O)[C@@H](C)O)C(=O)N[C@@H](CCC(=O)O)C(=O)N[C@@H](CCC(=O)O)C(=O)N[C@@H](CCC(N)=O)C(=O)N[C@@H](CCCNC(=N)N)C(=O)N[C@@H](CCC(N)=O)C(=O)N[C@@H](CCCCN)C(=O)N[C@@H](CCC(=O)O)C(=O)N[C@@H](Cc1ccccc1)C(=O)N[C@H](C(=O)N[C@@H](CCC(=O)O)C(=O)N[C@@H](Cc1c[nH]c2ccccc12)C(=O)N[C@@H](CC(C)C)C(=O)N[C@@H](CCCCN)C(=O)N[C@@H](C)C(=O)NCC(=O)NCC(=O)N1CCC[C@H]1C(=O)N1CCC[C@H]1C(=O)N[C@@H](CO)C(=O)NC(C)(C)C(=O)N[C@@H](CCCCN)C(=O)N1CCC[C@H]1C(=O)N1CCC[C@H]1C(=O)N1CCC[C@H]1C(=O)N[C@@H](CCCCN)C(N)=O)[C@@H](C)CC)C(=O)O)C(=O)O [SEQ ID NO: 8, H-Aib-H-G-T-F-T-S-D-L-S-K-L-K[gGlu-gGlu-Palm]-E-E-Q-R-Q-K-E-F-I-E-W-L-K-A-G-G-P-P-S-Aib-K-P-P-P-K-NH2] |
| – | – | – | 11.68 | 11.82 | CCCCCCCCCCCCCCCC(=O)N[C@@H](CCC(=O)N[C@@H](CCC(=O)NCCCC[C@H](NC(=O)[C@H](CC(C)C)NC(=O)[C@H](CCCCN)NC(=O)[C@H](CO)NC(=O)[C@H](CC(C)C)NC(=O)[C@H](CC(=O)O)NC(=O)[C@H](CO)NC(=O)[C@@H](NC(=O)[C@H](Cc1ccccc1)NC(=O)[C@@H](NC(=O)CNC(=O)[C@H](Cc1c[nH]cn1)NC(=O)C(C)(C)NC(=O)[C@@H](N)Cc1c[nH]cn1)[C@@H](C)O)[C@@H](C)O)C(=O)N[C@@H](CCC(=O)O)C(=O)N[C@@H](CCC(=O)O)C(=O)N[C@@H](CCC(N)=O)C(=O)N[C@@H](CCCNC(=N)N)C(=O)N[C@@H](CCC(N)=O)C(=O)NC(C)(C)C(=O)N[C@@H](CCC(=O)O)C(=O)N[C@@H](Cc1ccccc1)C(=O)N[C@H](C(=O)N[C@@H](CCC(=O)O)C(=O)N[C@@H](Cc1c[nH]c2ccccc12)C(=O)N[C@@H](CC(C)C)C(=O)N[C@@H](CCCCN)C(=O)N[C@@H](C)C(=O)N[C@H](C)C(=O)NCC(=O)N1CCC[C@H]1C(=O)N1CCC[C@H]1C(=O)N[C@@H](CO)C(=O)NC(C)(C)C(=O)N[C@@H](CCCCN)C(=O)N1CCC[C@H]1C(=O)N1CCC[C@H]1C(=O)N1CCC[C@H]1C(=O)N[C@@H](CCCCN)C(N)=O)[C@@H](C)CC)C(=O)O)C(=O)O [SEQ ID NO: 11, H-Aib-H-G-T-F-T-S-D-L-S-K-L-K[gGlu-gGlu-Palm]-E-E-Q-R-Q-Aib-E-F-I-E-W-L-K-A-dAla-G-P-P-S-Aib-K-P-P-P-K-NH2] (H-H[Aib]HGTFTSDLSKLK([γGlu-γGlu-Palmitoyl])EEQRQ[Aib]EFIEWLKA[dA]GPPS[Aib]KPPPK-NH2) |

— patent publication US10538567B2, “Compounds as peptidic trigonal GLP1/glucagon/GIP receptor agonists” (priority 2016, dated 2020)
